Test results published in US11787785B2 (NOVARTIS AG, priority 2021, dated 2023).
Where two headings read alike, the source gives them in different places.

Molecular target: T1, WIZ protein (HiBit-WIZ fusion protein) (Homo sapiens, UniProt O95785+Q96SW2)
T1 construct: expressed in transfected cells
Assay: Quantification of WIZ protein levels in HiBit tag fusion protein assay (WIZ HiBit assay in 293T cells)
Format: cell-based
Parameters: remaining activity / Dmax: dose or concentration left out as unconfirmed
Procedure: The HiBit system from Promega was used to develop high-throughput and quantitative assays to measure changes in WIZ protein levels in response to compounds. The HiBit tag was derived from a split Nanoluciferase and has the following protein sequence: […] (SEQ ID NO: 1). The complementary fragment of Nanoluciferase (known as LgBit, from Promega), was added to the HiBit tag to form an active Nanoluciferase enzyme whose activity can be precisely measured. In this way, the levels of a fusion protein with the HiBit tag can be quantified in cell lysates.
Lentiviral vectors, based on the Invitrogen™ pLenti6.2/V5 DEST backbone were constructed that places the HiBit tag upstream of WIZ and expressed the fusion protein from an HSVTK promotor.
To ensure moderate and consistent expression of the HiBit-WIZ fusion protein across all cells in the population, stable cell lines were constructed from cells harboring a single copy of the construct. Lentivirus packaged with the constructs were made using the ViraPower™ kit from Invitrogen™. 293T cells from ATCC (Catalog number: CRL-3216), were infected with the virus at low multiplicity of infection and selected by 5 μg/mL blasticidin in culture media for 2 weeks.
The levels of HiBit-WIZ tagged fusion proteins in compound-treated cell lines were measured as follows:
On day 1, cells were diluted to 1.0×10^6 cells/ml in normal growth medium. 20 μL of cell suspension were plated in each well of a solid white 384-well plate. Plates were incubated overnight in a 37° C. and 5% CO2 humidified tissue culture incubator.
On day 2, serial dilutions of compounds were made in 384-well plates. Compound plates were set up with DMSO in columns 1, 2, 23, 24, and 10-point compound dilution series in column 3-12 and column 13-22. 10 mM stock solution of compound were placed into column 3 or 13 and a 1:5 serial dilution was carried out until there was a 10-point dilution series per compound. 50 nL of diluted compounds were transferred into the plated cells by Echo® (Labcyte) acoustic transfer. The highest concentration of compound was 25 μM. Plates were incubated overnight (about 18 hours) in a 37° C. and 5% CO2 humidified tissue culture incubator.
On day 3, plates were removed from the incubator and allowed to equilibrate at room temperature for 60 minutes. HiBit substrate (Nano-Glo® HiBit Lytic Detection System, Promega Catalogue number: N3050) was added as described by the manufacturers protocols. Plates were incubated at room temperature for 30 minutes and luminescence was read using an EnVision® reader (PerkinElmer®). Data was analyzed and visualized using the Spotfire® software package.
WIZ Degradation Activity of Compounds (Table 1)
WIZ Amax reflects the DMSO-normalized, curve-fitted percentage of WIZ-HiBit remaining at 25 uM. It was calculated by normalizing […] controls to 100%, parametric curve fitting of the dose response data (10-point, 5-fold), followed by calculation of response at 25 uM using the fitted equation (nd=not determined).

[1] = HEK-293T, 100 − Amax, at 25 uM; 293T cells; read-out: % degradation of WIZ (100 − Amax)
[2] = HEK-293T, DMSO-normalized, curve-fitted percentage of WIZ-HiBit remaining at 25 uM; 293T cells; read-out: WIZ Amax
[3] = WIZ HiBit assay in 293T cells; 10-point, 5-fold dose response, highest concentration 25 μM, about 18 hours; read-out: WIZ AC50
[4] = HEK-293T, read-out: % degradation of WIZ (100 − Amax)

T1 sequence (O95785 whole entry, the tested form may be a part): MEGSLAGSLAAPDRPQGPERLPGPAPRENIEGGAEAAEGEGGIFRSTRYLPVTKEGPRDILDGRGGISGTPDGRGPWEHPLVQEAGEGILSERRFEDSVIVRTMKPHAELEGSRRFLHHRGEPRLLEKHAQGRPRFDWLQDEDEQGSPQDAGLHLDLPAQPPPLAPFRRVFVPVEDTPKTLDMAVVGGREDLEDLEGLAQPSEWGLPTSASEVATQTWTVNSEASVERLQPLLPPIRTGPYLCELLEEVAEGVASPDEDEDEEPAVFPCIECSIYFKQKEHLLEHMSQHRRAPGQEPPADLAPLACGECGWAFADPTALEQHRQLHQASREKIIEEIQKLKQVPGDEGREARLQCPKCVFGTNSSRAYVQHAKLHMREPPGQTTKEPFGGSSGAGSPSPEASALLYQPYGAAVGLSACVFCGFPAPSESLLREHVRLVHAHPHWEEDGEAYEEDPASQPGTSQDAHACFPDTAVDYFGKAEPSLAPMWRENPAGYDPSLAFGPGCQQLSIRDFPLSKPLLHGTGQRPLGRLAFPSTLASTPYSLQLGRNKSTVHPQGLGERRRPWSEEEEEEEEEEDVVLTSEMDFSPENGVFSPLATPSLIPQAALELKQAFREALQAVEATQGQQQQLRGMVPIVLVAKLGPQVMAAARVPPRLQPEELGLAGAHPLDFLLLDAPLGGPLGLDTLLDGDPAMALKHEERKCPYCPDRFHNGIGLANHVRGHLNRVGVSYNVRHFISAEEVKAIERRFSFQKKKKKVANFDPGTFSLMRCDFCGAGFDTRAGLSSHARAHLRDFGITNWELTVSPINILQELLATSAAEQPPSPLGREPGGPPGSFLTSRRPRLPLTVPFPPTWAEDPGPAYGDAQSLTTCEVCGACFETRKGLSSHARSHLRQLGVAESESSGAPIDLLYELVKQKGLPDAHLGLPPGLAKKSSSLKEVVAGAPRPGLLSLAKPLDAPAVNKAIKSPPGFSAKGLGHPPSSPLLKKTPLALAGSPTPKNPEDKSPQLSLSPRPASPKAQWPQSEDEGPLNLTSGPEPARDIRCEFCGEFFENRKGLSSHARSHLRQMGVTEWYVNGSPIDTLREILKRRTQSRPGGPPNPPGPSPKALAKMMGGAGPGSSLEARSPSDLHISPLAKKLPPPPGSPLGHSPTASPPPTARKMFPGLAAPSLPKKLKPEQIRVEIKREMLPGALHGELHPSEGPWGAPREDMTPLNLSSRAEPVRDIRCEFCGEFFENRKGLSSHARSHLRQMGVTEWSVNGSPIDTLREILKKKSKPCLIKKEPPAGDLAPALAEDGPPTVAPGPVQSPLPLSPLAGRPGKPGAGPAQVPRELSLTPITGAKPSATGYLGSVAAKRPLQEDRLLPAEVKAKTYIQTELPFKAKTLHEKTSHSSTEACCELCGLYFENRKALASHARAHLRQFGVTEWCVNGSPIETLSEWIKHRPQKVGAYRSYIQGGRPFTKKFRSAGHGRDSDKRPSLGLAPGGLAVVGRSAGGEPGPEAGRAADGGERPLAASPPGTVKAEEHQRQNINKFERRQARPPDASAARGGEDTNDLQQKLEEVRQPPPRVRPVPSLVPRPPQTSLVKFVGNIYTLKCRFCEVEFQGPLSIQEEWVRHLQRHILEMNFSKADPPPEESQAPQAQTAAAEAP
T1 sequence (Q96SW2 whole entry, the tested form may be a part): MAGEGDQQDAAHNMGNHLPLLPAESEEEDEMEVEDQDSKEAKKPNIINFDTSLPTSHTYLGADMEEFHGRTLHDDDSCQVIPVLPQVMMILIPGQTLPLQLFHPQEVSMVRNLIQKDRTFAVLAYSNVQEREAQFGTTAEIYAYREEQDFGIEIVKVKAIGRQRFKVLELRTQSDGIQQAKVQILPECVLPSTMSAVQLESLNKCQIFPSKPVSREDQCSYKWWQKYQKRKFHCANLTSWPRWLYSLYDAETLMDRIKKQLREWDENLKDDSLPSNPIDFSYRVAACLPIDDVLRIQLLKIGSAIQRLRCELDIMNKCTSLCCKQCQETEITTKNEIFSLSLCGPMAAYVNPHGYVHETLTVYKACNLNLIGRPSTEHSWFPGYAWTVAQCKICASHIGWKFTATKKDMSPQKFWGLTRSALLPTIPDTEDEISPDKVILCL
T1 sequence (Q16531 whole entry partner, the tested form may be a part): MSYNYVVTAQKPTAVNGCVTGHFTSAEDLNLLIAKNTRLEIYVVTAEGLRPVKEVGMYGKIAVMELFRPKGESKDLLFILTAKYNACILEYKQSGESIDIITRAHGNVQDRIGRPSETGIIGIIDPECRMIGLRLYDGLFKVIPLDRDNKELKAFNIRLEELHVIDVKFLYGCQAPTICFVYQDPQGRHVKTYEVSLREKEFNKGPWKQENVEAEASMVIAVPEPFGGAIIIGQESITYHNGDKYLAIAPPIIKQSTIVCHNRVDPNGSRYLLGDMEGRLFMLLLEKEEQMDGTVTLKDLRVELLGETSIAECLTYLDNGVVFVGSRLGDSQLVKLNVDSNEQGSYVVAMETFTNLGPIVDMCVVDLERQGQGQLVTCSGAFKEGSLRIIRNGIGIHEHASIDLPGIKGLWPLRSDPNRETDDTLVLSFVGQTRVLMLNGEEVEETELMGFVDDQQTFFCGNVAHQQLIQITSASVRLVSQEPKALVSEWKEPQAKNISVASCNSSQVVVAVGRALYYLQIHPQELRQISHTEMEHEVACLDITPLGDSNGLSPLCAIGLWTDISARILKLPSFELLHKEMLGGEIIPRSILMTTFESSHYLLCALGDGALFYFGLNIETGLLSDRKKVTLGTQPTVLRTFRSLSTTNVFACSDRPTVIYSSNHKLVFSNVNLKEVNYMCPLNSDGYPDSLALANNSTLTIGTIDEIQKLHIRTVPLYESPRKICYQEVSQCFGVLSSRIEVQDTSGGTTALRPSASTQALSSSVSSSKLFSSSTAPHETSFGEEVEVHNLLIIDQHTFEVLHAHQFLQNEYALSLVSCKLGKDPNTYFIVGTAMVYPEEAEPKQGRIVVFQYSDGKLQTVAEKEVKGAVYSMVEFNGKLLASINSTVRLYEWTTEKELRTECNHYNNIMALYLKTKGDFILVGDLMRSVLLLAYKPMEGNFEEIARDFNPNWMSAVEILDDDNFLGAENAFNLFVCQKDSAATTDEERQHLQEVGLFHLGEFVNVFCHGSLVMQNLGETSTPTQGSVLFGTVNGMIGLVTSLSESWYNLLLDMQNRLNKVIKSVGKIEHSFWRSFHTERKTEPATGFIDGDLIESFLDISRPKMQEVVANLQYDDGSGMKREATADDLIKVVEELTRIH

SMILES	Dmax at 25 µM [1] [%]	remaining activity at 25 µM [2] [%]	DC50 [3] [nM]	Dmax [4] [%]	remaining activity (HEK-293T, read-out: WIZ Amax) [%]	DC50 (read-out: WIZ AC50; WIZ HiBit assay in 293T cells; 10-point, 5-fold dose response, highest concentration 25 μM, about 18 hours) [nM]
O=C1CCN(c2cnn3ccc(CC4CCN(CCC5CCCCC5)CC4)cc23)C(=O)N1 [Example 6, 1-(5-((1-(2-cyclohexylethyl)piperidin-4-yl)methyl)pyrazolo[1,5-a]pyridin-3-yl)dihydropyrimidine-2,4(1H,3H)-dione]	89	11	13			
CC(C)(C1CCC(F)(F)CC1)N1CCC(Cc2ccn3ncc(N4CCC(=O)NC4=O)c3c2)CC1 [Example 140, 1-(5-((1-(2-(4,4-difluorocyclohexyl)propan-2-yl)piperidin-4-yl)methyl)pyrazolo[1,5-a]pyridin-3-yl)dihydropyrimidine-2,4(1H,3H)-dione]	90	10	7			
C[C@H]1C[C@H](Cc2ccn3ncc(N4CCC(=O)NC4=O)c3c2)CCN1CC1CC(F)(F)C1 [Example 152, 1-(5-(((2S,4R)-1-((3,3-difluorocyclobutyl)methyl)-2-methylpiperidin-4-yl)methyl)pyrazolo[1,5-a]pyridin-3-yl)dihydropyrimidine-2,4(1H,3H)-dione]	81	19	910			
O=C1CCN(c2cnn3ccc(CN4C[C@H]5CC[C@@H](C4)N5CC4CCCCC4)cc23)C(=O)N1 [Example 252, 1-(5-(((1R,5S)-8-(cyclohexylmethyl)-3,8-diazabicyclo[3.2.1]octan-3-yl)methyl)pyrazolo[1,5-a]pyridin-3-yl)dihydropyrimidine-2,4(1H,3H)-dione]	42	58	277			
C[C@H]1CN(Cc2ccn3ncc(N4CCC(=O)NC4=O)c3c2)CCN1C[C@H]1CC[C@H](O)CC1 [Example 201, 1-(5-(((S)-4-(((1r,4S)-4-hydroxycyclohexyl)methyl)-3-methylpiperazin-1-yl)methyl)pyrazolo[1,5-a]pyridin-3-yl)dihydropyrimidine-2,4(1H,3H)-dione]	88	12	20			
CC(C)CC(C)(C)N1CCC(Cc2ccn3ncc(N4CCC(=O)NC4=O)c3c2)CC1 [Example 139, 1-(5-((1-(2,4-dimethylpentan-2-yl)piperidin-4-yl)methyl)pyrazolo[1,5-a]pyridin-3-yl)dihydropyrimidine-2,4(1H,3H)-dione]	83	17	3			
CC(C)(F)CN1CCC(Cc2ccn3ncc(N4CCC(=O)NC4=O)c3c2)CC1 [Example 39, 1-(5-((1-(2-fluoro-2-methylpropyl)piperidin-4-yl)methyl)pyrazolo[1,5-a]pyridin-3-yl)dihydropyrimidine-2,4(1H,3H)-dione]	71	29	83			
Cc1ccc(CN2CCC(Cc3ccn4ncc(N5CCC(=O)NC5=O)c4c3)CC2)cc1 [Example 47, 1-(5-((1-(4-methylbenzyl)piperidin-4-yl)methyl)pyrazolo[1,5-a]pyridin-3-yl)dihydropyrimidine-2,4(1H,3H)-dione]	69	31	157			
COCC(F)(F)CN1CC[C@@H](Cc2ccn3ncc(N4CCC(=O)NC4=O)c3c2)C[C@@H]1C [Example 278, 1-(5-(((2S,4R)-1-(2,2-difluoro-3-methoxypropyl)-2-methylpiperidin-4-yl)methyl)pyrazolo[1,5-a]pyridin-3-yl)dihydropyrimidine-2,4(1H,3H)-dione]			66	72	28	
C[C@H]1C[C@H](Cc2ccn3ncc(N4CCC(=O)NC4=O)c3c2)CCN1CCC1CCOCC1 [Example 148]	86	14	63			
O=C1CCN(c2cnn3ccc(CC4CCN(C[C@H]5CC[C@H](O)CC5)CC4)cc23)C(=O)N1 [Example 151, 1-(5-((1-(((1r,4r)-4-hydroxycyclohexyl)methyl)piperidin-4-yl)methyl)pyrazolo[1,5-a]pyridin-3-yl)dihydropyrimidine-2,4(1H,3H)-dione]	86	14	270			
CCN(C)C(=O)N1CC[C@@H](Cc2ccn3ncc(N4CCC(=O)NC4=O)c3c2)C[C@@H]1C [Example 299, (2S,4R)-4-((3-(2,4-dioxotetrahydropyrimidin-1(2H)-yl)pyrazolo[1,5-a]pyridin-5-yl)methyl)-N-ethyl-N,2-dimethylpiperidine-1-carboxamide]				82	18	9
CC(c1cccnc1)N1CCN(Cc2ccn3ncc(N4CCC(=O)NC4=O)c3c2)CC1 (stereo not drawn) [Example 175]	40	60	1240			

Now from value to compound, other results behind:

Dmax at 25 µM [1] [%]	remaining activity at 25 µM [2] [%]	DC50 [3] [nM]	SMILES	Dmax [4] [%]	remaining activity (HEK-293T, read-out: WIZ Amax) [%]	DC50 (read-out: WIZ AC50; WIZ HiBit assay in 293T cells; 10-point, 5-fold dose response, highest concentration 25 μM, about 18 hours) [nM]
80	20	31	CO[C@H]1C[C@@H](CN2CCN(Cc3ccn4ncc(N5CCC(=O)NC5=O)c4c3)C[C@@H]2C)C1 [Example 317, 1-(5-(((S)-4-(((1s,3R)-3-methoxycyclobutyl)methyl)-3-methylpiperazin-1-yl)methyl)pyrazolo[1,5-a]pyridin-3-yl)dihydropyrimidine-2,4(1H,3H)-dione]			
84	16	42	CO[C@H]1C[C@H](CN2CC[C@@H](Cc3ccn4ncc(N5CCC(=O)NC5=O)c4c3)C[C@@H]2C)C1 [Example 302, 1-(5-(((2S,4R)-1-(((1r,3S)-3-methoxycyclobutyl)methyl)-2-methylpiperidin-4-yl)methyl)pyrazolo[1,5-a]pyridin-3-yl)dihydropyrimidine-2,4(1H,3H)-dione]			
85	15	32	C[C@H]1CN(Cc2ccn3ncc(N4CCC(=O)NC4=O)c3c2)CCN1C1CCC(F)(F)CC1 [Example 334]			
55	45	880	O=C1CCN(c2cnn3ccc(CN4CCN5CCOC[C@H]5C4)cc23)C(=O)N1 [Example 263, (R)-1-(5-((hexahydropyrazino[2,1-c][1,4]oxazin-8(1H)-yl)methyl)pyrazolo[1,5-a]pyridin-3-yl)dihydropyrimidine-2,4(1H,3H)-dione]			
66	34	133	CC(C)CN1CCN(Cc2ccn3ncc(N4CCC(=O)NC4=O)c3c2)[C@H](C)C1 [Example 220]			
15	85	1370	CC(C)CN1CCN(Cc2ccn3ncc(N4CCC(=O)NC4=O)c3c2)C[C@@H]1C(F)F [Example 247, (R)-1-(5-((3-(difluoromethyl)-4-isobutylpiperazin-1-yl)methyl)pyrazolo[1,5-a]pyridin-3-yl)dihydropyrimidine-2,4(1H,3H)-dione]			
83	17	399	C[C@H]1CN(Cc2ccn3ncc(N4CCC(=O)NC4=O)c3c2)CCN1C1CC2(C1)CN(S(C)(=O)=O)C2 [Example 337, (S)-1-(5-((3-methyl-4-(2-(methylsulfonyl)-2-azaspiro[3.3]heptan-6-yl)piperazin-1-yl)methyl)pyrazolo[1,5-a]pyridin-3-yl)dihydropyrimidine-2,4(1H,3H)-dione]			
74	26	380	C[C@H]1CN(Cc2ccn3ncc(N4CCC(=O)NC4=O)c3c2)CCN1CC1CCCO1 (stereo partly drawn) [Example 209]			
